Experimental data: paper PMC8082182 (Frontiers in Pharmacology, 2021)
Like-named read-outs stand apart in the source and are kept apart here.

Experiments:
[1] = Unified one-compartment population PK model (NONMEM, FOCE with interaction) for Chinese adults and pediatric patients
Text: (§1) The TDM concentration data of therapeutic drugs in adults and pediatric patients with Gram-positive bacterial infection were collected.
(§2) The population pharmacokinetics model was composed of a structural model and random effect models using the first-order conditional estimation method (FOCE) with interaction. Demographic variables (e.g., gender, age, weight, height, body mass index [BMI]), renal function descriptors (serum creatinine, eGFR, creatinine clearance rate [CLCr], and albumin, etc.), and disease conditions (e.g., surgery or injury, chronic kidney disease, diabetes, cancer) were tested as potential covariates. Covariates were evaluated using the stepwise forward-selection method and backward elimination. The population PK model for adults and pediatric patients were evaluated respectively and the model parameters were compared. In order to unify the population PK model for adults and pediatric patients, the datasets were merged and the covariates were consolidated and reevaluated. […] The established population PK model was used to simulate individual PK parameters (Cmin, Cmax, AUC0–24) by Bayesian feedback method for the further PK/PD evaluation.

[2] = for AUC0–24, median (IQR) / Cmax,ss, Median (IQR): Improved patients
Text: as §1, §2

[3] = Pulmonary, Not improved patients, IQR not reported for n < 5

Q: What does the source list for `CN[C@H](CC(C)C)C(=O)N[C@H]1C(=O)N[C@@H](CC(N)=O)C(=O)N[C@H]2C(=O)N[C@H]3C(=O)N[C@H](C(=O)N[C@H](C(=O)O)c4cc(O)cc(O)c4-c4cc3ccc4O)[C@H](O)c3ccc(c(Cl)c3)Oc3cc2cc(c3O[C@@H]2O[C@H](CO)[C@@H](O)[C@H](O)[C@H]2O[C@H]2C[C@](C)(N)[C@H](O)[C@H](C)O2)Oc2ccc(cc2Cl)[C@H]1O` [vancomycin]?
A: Age effect on V (θ5) ([1]; bootstrap median): 0.331; Body weight effect on V (θ6) ([1]; bootstrap median): 0.347; V (θ2) ([1]; bootstrap median): 44.8 L; CL (θ1) ([1]; bootstrap median, 1,000 times): 3.82 L/h; Age effect on V (θ5) ([1]; final model estimate, exponent): 0.33; Body weight effect on V (θ6) ([1]; final model estimate, exponent): 0.349; V (θ2) ([1]; final model estimate, typical value at AGE 55, WT 58.25): 44.7 L; CL (θ1) ([1]; final model estimate, typical value at CLCr 90.28, WT 58.25, adults and pediatric patients): 3.83 L/h; AUC0–24, median (IQR) ([2]; Bloodstream): 215.9 (172.33, 305.85) hr*mg/L; Cmax,ss, Median (IQR) ([2]; Bloodstream): 23.32 (17.20, 26.57) mg/L; Cmax,ss, Median ([2]; Bloodstream, Not improved patients, IQR not reported for n < 5): 26020 ng/mL; AUC0–24, median (IQR) ([2]; Central nerve system): 303.3 (204.97, 386.18) hr*mg/L; Cmax,ss, Median (IQR) ([2]; Central nerve system): 28.11 (24.75, 30.66) mg/L; Cmax,ss, Median ([2]; Central nerve system, Not improved patients, IQR not reported for n < 5): 21410 ng/mL; Cmax,ss, Median (IQR) ([2]; Endocarditis): 21.50 (17.20, 23.70) mg/L; AUC0–24, median (IQR) ([2]; Overall): 217.5 (172.87, 286.34) hr*mg/L; AUC0–24, median (IQR) ([2]; Pulmonary): 219.2 (183.44, 266.38) hr*mg/L; Cmax,ss, Median (IQR) ([2]; Pulmonary): 20.24 (16.24, 28.07) mg/L; Cmax,ss, Median [2, 3]: 22600 ng/mL; Cmin,ss, Median [2, 3]: 3320 ng/mL; AUC0–24, median (IQR) ([2]; Urinary tract): 196.2 (145.03, 287.92) hr*mg/L; Cmax,ss, Median (IQR) ([2]; Urinary tract): 22.08 (15.80, 25.63) mg/L; Cmax,ss, Median ([2]; Urinary tract, Not improved patients, IQR not reported for n < 5): 29180 ng/mL
